Experimental data taken from US12559461B2, “Antibiotic adjuvant compounds” (UNIVERSITY OF NOTRE DAME DU LAC, priority 2020, dated 2026).
Where two headings read alike, the source gives them in different places.

What was measured:
Assay type in all cases: cell-based, Acinetobacter baumannii
AB5075 [1] = assay: Broth microdilution MIC of compound alone (standalone toxicity)
In short: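 A. baumannii 5075 subcultured to 5×10^5 CFU/mL in cation-adjusted Mueller-Hinton broth; compound twofold serially diluted from 200 μM (DMSO stock) and incubated stationary at 37° C for 16 h. MIC taken as lowest concentration with no visible growth; duplicates, repeated at least twice.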

AB5075 [2] = assay: Broth microdilution clarithromycin (CLR) potentiation and dose-response of adjuvant
In short: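 A. baumannii AB5075 at 5×10^5 CFU/mL in CAMHB with fixed adjuvant (DMSO ≤0.3%) and two-fold serially diluted clarithromycin or colistin, stationary 16 h at 37° C. MIC = lowest concentration without visible growth; fold reduction versus antibiotic alone. Dose-response used adjuvant at 0–30 μM.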

[3] = test system: A. baumannii isolates (23 strains); assay: Minimum inhibitory concentration against AB isolates; settings: Acinetobacter baumannii, compound alone
Protocol: Broth microdilution method for MIC determination. Day cultures (6 h) of each bacterial strain in cation adjusted Mueller Hinton II broth (CAMHB, Fisher Scientific U.S.) were subcultured to 5×10^5 CFU/mL in CAMHB. Aliquots (1 mL) were placed in culture tubes and compound was added from 10 mM stock samples in DMSO, such that compound concentration equaled highest concentration tested (200 μM). Samples were then aliquoted (200 μL) into the first wells of a 96-well plate, with all remaining wells being filled with 100 μL of initial bacterial subculture. Row one wells were mixed five times, before 100 μL was transferred to row two. Row two was then mixed five times, and 100 μL was transferred to row three. This process was repeated until the final row had been mixed; this served to serially dilute the compound. Plates were then covered with GLAD Press n'Seal and incubated under stationary conditions at 37° C. for 16 h. MIC values were then recorded as the lowest concentration at which no bacterial growth was observed.

[4] = test system: A. baumannii isolates (23 strains); assay: Clarithromycin potentiation against AB isolates; settings: adjuvant at 10 μM
Protocol: Broth microdilution method for antibiotic potentiation. Day cultures (6 h) of bacteria in CAMHB were subcultured to 5×10^5 CFU/mL in CAMHB. Aliquots (4 mL) were placed in culture tubes and dosed with compound from 10 mM stock samples to give the desired concentration of the compound to be tested against the particular bacterial strain; this insured non-toxic DMSO concentrations ≤0.3% in each well. 1 mL of the resulting solution was placed in a separate culture and dosed with antibiotic at the highest concentration to be tested. Bacteria treated with antibiotic alone served as the control. Row one of a 96-well plate was filled with 200 μL of the antibiotic/2-AI solution, and rows 2-12 were filled with 100 μL each of the remaining 4 mL of bacterial subculture containing adjuvant at the desired concentration, except for the control lane which contained only bacterial subculture. Row one was then mixed five times, and 100 μL was transferred to row two, which was then mixed five times before being transferred to row three. This process was repeated until all rows had been mixed, except for row twelve which would have only 2-AI to serve as a control to monitor potential toxicity. The 96-well plate was then covered in Glad Press n'Seal and incubated under stationary conditions at 37° C. for 16 h. MIC values were determined as the lowest concentration at which no bacterial growth was observed, and fold reductions were determined by comparison to antibiotic control lane.

Cl.Nc1nc(-c2ccc(NC(=O)c3ccc(Cl)c(Cl)c3)cc2F)c[nH]1 [Compound 15b, N-(4-(2-amino-1H-imidazol-4-yl)-3-fluorophenyl)-3,4-dichlorobenzamide hydrochloride]
MIC (AB5075 [1]; Acinetobacter baumannii): > 200 µM | MIC (AB5075 [1]; hydrochloride): >200 µM | CLR MIC (AB5075 [2]; compound tested at 5 μM): 8 µg/mL | Fold Reduction of CLR MIC (AB5075 [2]; compound tested at 5 μM): 4 fold | CLR MIC (AB5075 [2]; compound tested at 7.5 μM): 1 µg/mL | Fold Reduction of CLR MIC (AB5075 [2]; compound tested at 7.5 μM): 32 fold | CLR MIC (AB5075 [2]; compound tested at 10 μM): 0.5 µg/mL | Fold Reduction of CLR MIC (AB5075 [2]; compound tested at 10 μM): 64 fold | CLR MIC (AB5075 [2]; compound tested at 20 μM): 0.5 µg/mL | Fold Reduction of CLR MIC (AB5075 [2]; compound tested at 20 μM): 64 fold | CLR MIC (AB5075 [2]; compound tested at 30 μM): 0.5 µg/mL | Fold Reduction of CLR MIC (AB5075 [2]; compound tested at 30 μM): 64 fold | MIC ([3]; A. baumannii strain 3560, read-out: Minimum inhibitory concentration of compound): 50 µM | MIC ([3]; A. baumannii strain 3785, read-out: Minimum inhibitory concentration of compound): 200 µM | MIC ([3]; A. baumannii strain 3806, read-out: Minimum inhibitory concentration of compound): 200 µM | MIC ([3]; A. baumannii strain 3927, read-out: Minimum inhibitory concentration of compound): > 200 µM | MIC ([3]; A. baumannii strain 4025, read-out: Minimum inhibitory concentration of compound): 100 µM | MIC ([3]; A. baumannii strain 4026, read-out: Minimum inhibitory concentration of compound): 100 µM | MIC ([3]; A. baumannii strain 4027, read-out: Minimum inhibitory concentration of compound): 200 µM | MIC ([3]; A. baumannii strain 4052, read-out: Minimum inhibitory concentration of compound): > 200 µM | MIC ([3]; A. baumannii strain 4269, read-out: Minimum inhibitory concentration of compound): > 200 µM | MIC ([3]; A. baumannii strain 4448, read-out: Minimum inhibitory concentration of compound): > 200 µM | MIC ([3]; A. baumannii strain 4456, read-out: Minimum inhibitory concentration of compound): 50 µM | MIC ([3]; A. baumannii strain 4490, read-out: Minimum inhibitory concentration of compound): > 200 µM | MIC ([3]; A. baumannii strain 4498, read-out: Minimum inhibitory concentration of compound): 100 µM | MIC ([3]; A. baumannii strain 4795, read-out: Minimum inhibitory concentration of compound): 100 µM | MIC ([3]; A. baumannii strain 4857, read-out: Minimum inhibitory concentration of compound): 50 µM | MIC ([3]; A. baumannii strain 4878, read-out: Minimum inhibitory concentration of compound): 200 µM | MIC ([3]; A. baumannii strain 4957, read-out: Minimum inhibitory concentration of compound): > 200 µM | MIC ([3]; A. baumannii strain 4991, read-out: Minimum inhibitory concentration of compound): > 200 µM | MIC ([3]; A. baumannii strain 5001, read-out: Minimum inhibitory concentration of compound): > 200 µM | MIC ([3]; A. baumannii strain 5197, read-out: Minimum inhibitory concentration of compound): > 200 µM | MIC ([3]; A. baumannii strain 5256, read-out: Minimum inhibitory concentration of compound): > 200 µM | MIC ([3]; A. baumannii strain 5711, read-out: Minimum inhibitory concentration of compound): > 200 µM | MIC ([3]; A. baumannii strain 8967, read-out: Minimum inhibitory concentration of compound): > 200 µM | MIC ([3]; remaining 20 strains, read-out: MIC values): ≥ 100 µM | MIC ([3]; three of the AB isolates, read-out: MIC values): 50 µM | CLR MIC + adjuvant ([4]; A. baumannii strain 3560): 2 µg/mL | CLR MIC + adjuvant ([4]; A. baumannii strain 3785): 4 µg/mL | CLR MIC + adjuvant ([4]; A. baumannii strain 3806): 0.5 µg/mL | CLR MIC + adjuvant ([4]; A. baumannii strain 3927): 2 µg/mL | CLR MIC + adjuvant ([4]; A. baumannii strain 4025): 1 µg/mL | CLR MIC + adjuvant ([4]; A. baumannii strain 4026): 4 µg/mL | CLR MIC + adjuvant ([4]; A. baumannii strain 4027): 1 µg/mL | CLR MIC + adjuvant ([4]; A. baumannii strain 4052): 1 µg/mL | CLR MIC + adjuvant ([4]; A. baumannii strain 4269): 2 µg/mL | CLR MIC + adjuvant ([4]; A. baumannii strain 4448): 2 µg/mL | CLR MIC + adjuvant ([4]; A. baumannii strain 4456): 2 µg/mL | CLR MIC + adjuvant ([4]; A. baumannii strain 4490): 2 µg/mL | CLR MIC + adjuvant ([4]; A. baumannii strain 4498): 2 µg/mL | CLR MIC + adjuvant ([4]; A. baumannii strain 4795): 2 µg/mL | CLR MIC + adjuvant ([4]; A. baumannii strain 4857): 1 µg/mL | CLR MIC + adjuvant ([4]; A. baumannii strain 4878): 2 µg/mL | CLR MIC + adjuvant ([4]; A. baumannii strain 4957): 4 µg/mL | CLR MIC + adjuvant ([4]; A. baumannii strain 4991): 2 µg/mL | CLR MIC + adjuvant ([4]; A. baumannii strain 5001): 4 µg/mL | CLR MIC + adjuvant ([4]; A. baumannii strain 5197): 2 µg/mL | CLR MIC + adjuvant ([4]; A. baumannii strain 5256): 1 µg/mL | CLR MIC + adjuvant ([4]; A. baumannii strain 5711): 4 µg/mL | CLR MIC + adjuvant ([4]; A. baumannii strain 8967): 1 µg/mL
